Test systems include LOX IMVI melanoma; SR leukemia; SK-MEL-2 melanoma; SF-295 CNS; EKVX NSCLC; M14 melanoma; SK-MEL-28 melanoma; ACHN renal; MALME-3M melanoma; HCT-15 colon.
Experiment in all cases: inhibition of tumour cell growth, NCI panel, 48 h

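Results reflect a 48-hour exposure of cells in 96-well plates to compound at five concentrations. GI50 = concentration required for 50% inhibition of growth. Definition used: TGI = concentration required for complete inhibition of growth.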

Turning to `Brc1cccc(/C=C/CN2CCN(CCOC(c3ccccc3)c3ccccc3)CC2)c1`, the TGI worked out at 27.6 µM in the experiment with LOX IMVI melanoma; 28.3 µM in the experiment with SR leukemia; 33.6 µM in the experiment on SK-MEL-2 melanoma; 32.6 µM with SF-295 CNS; 40.8 µM in the experiment on EKVX NSCLC; 27.1 µM with M14 melanoma. Also, the TGI in the experiment on SK-MEL-28 melanoma worked out at 37.5 µM; in the experiment with ACHN renal it was 33.1 µM; with MALME-3M melanoma, 31.5 µM; in the experiment on HCT-15 colon, 40.1 µM.
For the compound `CCCCCCCCCOC(=O)c1cnc(Cl)cn1`, the TGI was 34.4 µM with LOX IMVI melanoma; more than 100 µM in the experiment on SR leukemia; 40.2 µM with SK-MEL-2 melanoma; 34.6 µM in the experiment on SF-295 CNS; 41.6 µM in the experiment with EKVX NSCLC; 36.3 µM with M14 melanoma. Further, the TGI with SK-MEL-28 melanoma was 52.7 µM; with ACHN renal it was 33.5 µM; with MALME-3M melanoma it was 39.4 µM; in the experiment on HCT-15 colon, 32 µM.
Take `C/C(=N/NC(=S)Nc1ccccc1Cl)c1ccccn1`: the TGI in the experiment on LOX IMVI melanoma worked out at 16 µM; with SR leukemia it was 3.22 µM; in the experiment with SK-MEL-2 melanoma it was 9.47 µM; in the experiment on SF-295 CNS, 9.57 µM; with EKVX NSCLC, 7.15 µM; in the experiment on M14 melanoma, 3.42 µM. For the same compound, the TGI amounted to 23 µM in the experiment on SK-MEL-28 melanoma, 8.59 µM with ACHN renal, 13 µM in the experiment with MALME-3M melanoma and 18 µM in the experiment on HCT-15 colon.
For the compound `CCN(CC)c1ccc(/C=C(\C#N)c2nc(N)nc(N3N=C(C)CC3(C)C)n2)cc1`, the TGI was 32.7 µM in the experiment with LOX IMVI melanoma; more than 100 µM in the experiment with SR leukemia; 34.1 µM in the experiment on SK-MEL-2 melanoma; 49.7 µM in the experiment with SF-295 CNS; more than 76.2 µM in the experiment on EKVX NSCLC; more than 45.5 µM in the experiment on M14 melanoma. For the same compound, the TGI is more than 100 µM in the experiment on SK-MEL-28 melanoma, 27.9 µM in the experiment on ACHN renal, 41 µM in the experiment with MALME-3M melanoma and more than 100 µM in the experiment with HCT-15 colon.
Turning to `S=c1ssc2c3ssc(=S)c3n(Cc3ccccc3)c12`, the TGI with LOX IMVI melanoma, in the experiment on SR leukemia, in the experiment on SK-MEL-2 melanoma, with SF-295 CNS, in the experiment on EKVX NSCLC and with M14 melanoma was more than 100 µM in each case. The TGI in the experiment on SK-MEL-28 melanoma, with ACHN renal, in the experiment with MALME-3M melanoma and with HCT-15 colon was more than 100 µM in each case.
Take `Cc1ccc(S(=O)ON2CCC(C(=O)O)(c3ccccc3)CC2)cc1` (configuration not stated): the TGI in the experiment with LOX IMVI melanoma, in the experiment on SR leukemia, in the experiment on SK-MEL-2 melanoma, with SF-295 CNS, with EKVX NSCLC and in the experiment on M14 melanoma was more than 100 µM in each case. Besides, the TGI with SK-MEL-28 melanoma, in the experiment on ACHN renal, in the experiment on MALME-3M melanoma and in the experiment with HCT-15 colon was more than 100 µM each time. Besides, the GI50 in the experiment with SR leukemia and with SK-MEL-2 melanoma was more than 100 µM in each case.
On to `CCCCCCCCC[C@@H]1C[C@@H]2CCC3C(C(=O)OC)=C(C)NC(=N1)N32` (some centres not stated), for which the TGI in the experiment with LOX IMVI melanoma is 26.5 µM; with SR leukemia it was more than 100 µM; with SK-MEL-2 melanoma it was 26.5 µM; in the experiment with SF-295 CNS it was 23.6 µM; in the experiment on EKVX NSCLC, 26.8 µM; with M14 melanoma it was 21.8 µM. The TGI in the experiment on SK-MEL-28 melanoma was more than 100 µM; in the experiment on ACHN renal, 32.1 µM; in the experiment on MALME-3M melanoma, 29 µM; with HCT-15 colon it was 38.3 µM.
As to `CCN(CC)C(=S)SS(=O)(=O)c1ccccc1C(=O)O`, the TGI in the experiment with LOX IMVI melanoma, in the experiment on SR leukemia, in the experiment on SK-MEL-2 melanoma, in the experiment with SF-295 CNS, in the experiment on EKVX NSCLC and with M14 melanoma was more than 100 µM in each case. Also, the TGI with SK-MEL-28 melanoma, with ACHN renal, with MALME-3M melanoma and in the experiment with HCT-15 colon was more than 100 µM each time.
Consider `CN1C2CCC1CC(OC(c1ccccc1)c1ccccc1)C2` (configuration not stated), for which the TGI is 29.4 µM in the experiment on LOX IMVI melanoma; 42 µM in the experiment on SR leukemia; 32.1 µM in the experiment on SK-MEL-2 melanoma; 23.5 µM in the experiment with SF-295 CNS; 91.2 µM with EKVX NSCLC; 27.9 µM in the experiment on M14 melanoma. For the same compound, the TGI with SK-MEL-28 melanoma came out at 27.8 µM; in the experiment on ACHN renal, 59.2 µM; with MALME-3M melanoma it was 28.1 µM; in the experiment on HCT-15 colon it was 78.8 µM.
Consider `C[C@]12CC[C@@H]3c4ccc(O)cc4CC[C@H]3[C@@H]1C/C(=C\c1ccc([N+](=O)[O-])cc1)C2=O`, for which the TGI in the experiment with LOX IMVI melanoma, with SR leukemia, in the experiment with SK-MEL-2 melanoma, in the experiment on SF-295 CNS, in the experiment with EKVX NSCLC and with M14 melanoma was more than 100 µM in each case. Moreover, the TGI in the experiment with SK-MEL-28 melanoma, with ACHN renal, in the experiment with MALME-3M melanoma and with HCT-15 colon was more than 100 µM each time.
Take `COC(=O)c1ccccc1C1CN=NC12Cc1ccc3ccccc3c1C2=O` (configuration not stated): the TGI with LOX IMVI melanoma, in the experiment on SR leukemia, with SK-MEL-2 melanoma, in the experiment on SF-295 CNS, with EKVX NSCLC and with M14 melanoma was more than 100 µM throughout. Besides, the TGI in the experiment with SK-MEL-28 melanoma, in the experiment with ACHN renal, with MALME-3M melanoma and in the experiment on HCT-15 colon was more than 100 µM throughout.
Regarding `Cn1cc(C(=O)c2nccc3c2cnc2ccccc23)ccc1=O`, the TGI was more than 100 µM with LOX IMVI melanoma; 49.7 µM in the experiment on SR leukemia; more than 100 µM with SK-MEL-2 melanoma; more than 100 µM in the experiment with SF-295 CNS; more than 100 µM in the experiment with EKVX NSCLC; more than 100 µM with M14 melanoma. Also, the TGI in the experiment on SK-MEL-28 melanoma, with ACHN renal, in the experiment on MALME-3M melanoma and with HCT-15 colon was more than 100 µM each time.
As to `CSC(SC)=C1CC(=O)Nc2ccccc2C1=O`, the TGI in the experiment with LOX IMVI melanoma is 32.5 µM; in the experiment on SR leukemia, more than 100 µM; in the experiment with SK-MEL-2 melanoma, more than 100 µM; in the experiment on SF-295 CNS, more than 100 µM; in the experiment with EKVX NSCLC, more than 100 µM; with M14 melanoma, more than 100 µM. Besides, the TGI with SK-MEL-28 melanoma, with ACHN renal, in the experiment with MALME-3M melanoma and with HCT-15 colon was more than 100 µM each time.

These data come from PubChem BioAssay (NCI).
